Experimental data published in patent publication US6878742B2, “Heterocyclic sulfonamide inhibitors of beta amyloid production” (Wyeth, priority 2000, dated 2005).
“And” between values parts separate entries of the source, which are not always exact repeats. Identical values can stand only once. Like-named read-outs stand apart in the source and are kept apart here.

System: amyloid precursor protein (APP) proteolysis
Test: Repressor Release Assay (RRA)
Format: cell-based
Details: for fold induction at 10 µg/mL / fold induction at 20 µg/mL: read-out: APPI Fold Increase
Procedure, shortened: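 This repressor release assay monitors APP proteolysis in mammalian cells. Transfected CHO-K1 cells (pRSVO-luc plus APP-lacI) were seeded at […], treated with compound diluted in 25 mM Hepes, then incubated 36-48 hours. After replacing media with PBS and adding LucLite lysis/substrate buffer, luminescence was measured, and fold increase over diluent control was calculated.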

[1] = Conc 10 μg/mL, luciferase activity over diluent control
[2] = Conc 20 μg/mL, luciferase activity over diluent control

Compound: C=CCC(O)[C@@H](NS(=O)(=O)c1cccs1)[C@@H](C)CC (stereo partly drawn) [Example 147, N-{(S)-2-hydroxy-1-[(S)-1-methylpropyl]pent-4-enyl}thiophene-2-sulfonamide]
- fold induction at 10 µg/mL [1]: 2.04

Compound: CC(C)[C@@](C)(CO)NS(=O)(=O)c1ccc(Cl)s1 [Example 26, 5-chloro-N-[(1S)-1-(hydroxymethyl)-1,2-dimethylpropyl]thiophene-2-sulfonamide]
- fold induction at 20 µg/mL [2]: 5

Compound: CC[C@H](C)[C@H](NS(=O)(=O)c1cccs1)C(O)C1CCCC1 (stereo partly drawn) [Example 140, N-{(S,S)-1-[cyclopentyl(hydroxy)methyl]-2-methylbutyl}thiophene-2-sulfonamide]
- fold induction at 10 µg/mL [1]: 2.57

Compound: CC[C@H](C)[C@H](NS(=O)(=O)c1cccs1)C(O)c1ccc(N(C)C)cc1 (stereo partly drawn) [Example 154, N-{(S,S)-1-[[4-(dimethylamino)phenyl](hydroxy)methyl]-2-methylbutyl}thiophene-2-sulfonamide]
- fold induction at 10 µg/mL [1]: 4.23

Compound: 5-bromo-N-{(S,S)-2-hydroxy-1-[(S)-1-methylpropyl]pent-4-enyl}thiophene-2-sulfonamide [Example 194]
- APPI Fold Increase [2]: 9 fold and 5.3 fold

Compound: CC(c1ccccc1)C(CO)NS(=O)(=O)c1ccc(Br)s1 (racemic) [Example 15, 5-bromo-N-[1-(hydroxymethyl)-2-phenylpropyl]thiophene-2-sulfonamide]
- fold induction at 10 µg/mL [1]: 3.08

Compound: CC(C)C[C@@H](c1ccccc1)[C@@H](CO)NS(=O)(=O)c1ccc(Cl)s1 [Example 47, 5-chloro-N-[(1S,2S)-1-(hydroxymethyl)-4-methyl-2-phenylpentyl]thiophene-2-sulfonamide]
- fold induction at 20 µg/mL [2]: 5.4

Compound: CC[C@H](c1ccc(OC)cc1)[C@@H](CO)NS(=O)(=O)c1ccc(Cl)s1 [Example 32, 5-chloro-N-[(1S,2R)-1-(hydroxymethyl)-2-(4-methoxyphenyl)butyl]thiophene-2-sulfonamide]
- fold induction at 20 µg/mL [2]: 5

Compound: CC[C@H](C)[C@H](NS(=O)(=O)c1ccc(Cl)s1)C(C)(C)O [Example 162, 5-Chloro-N-[(S,S)-1-(1-hydroxy-1-methylethyl)-2-methylbutyl]thiophene-2-sulfonamide]
- fold induction at 10 µg/mL [1]: 2.6

Compound: CC[C@H](C)[C@@H](CO)NS(=O)(=O)c1cccs1 [Example 210, N-[(1S,2S)-1-(Hydroxymethyl)-2-methylbutyl]thiophene-2-sulfonamide]
- APPI Fold Increase [2]: 7.7 fold

Compound: CCCCCC(O)(CCCCC)[C@@H](NS(=O)(=O)c1ccc(Cl)s1)[C@@H](C)CC [Example 163, 5-chloro-N-{(S)-2-hydroxy-1-[(S)-1-methylpropyl]-2-pentylheptyl}thiophene-2-sulfonamide]
- fold induction at 10 µg/mL [1]: 3.3

Compound: O=S(=O)(NC1(CO)Cc2ccccc2C1)c1ccc(Br)s1 [Example 183]
- APPI Fold Increase [2]: 3.7 fold

Compound: CCCOC1CCC([C@@H](CO)NS(=O)(=O)c2ccc(Cl)s2)CC1 (stereo partly drawn) [Example 200, 5-chloro-N-[(S)-2-hydroxy-1-(4-propoxycyclohexyl)ethyl]thiophene-2-sulfonamide]
- fold induction at 20 µg/mL [2]: 2

Compound: CCC(CC)[C@@H](CO)NS(=O)(=O)c1cccs1 [Example 226, N-[(S)-2-Ethyl-1-(hydroxymethyl)butyl]thiophene-2-sulfonamide]
- fold induction at 20 µg/mL [2]: 7.6

Compound: CC[C@H](C)[C@H](NS(=O)(=O)c1ccc(Cl)s1)C(O)c1ccc(N(C)C)cc1 (stereo partly drawn) [Example 139, 5-chloro-N-{(S,S)-1-[[4-(dimethylamino)phenyl](hydroxy)methyl]-2-methylbutyl}thiophene-2-sulfonamide]
- fold induction at 10 µg/mL [1]: 3.97

Compound: O=S(=O)(N[C@H](CO)CC1CCCCC1)c1ccc(Br)s1 [Example 110]
- APPI Fold Increase [1]: 1.71 fold
- APPI Fold Increase [2]: 2.9 fold and 2.3 fold and 3.6 fold

Compound: CC[C@H](C)[C@H](NS(=O)(=O)c1ccc(Cl)s1)C(O)(c1ccccc1)c1ccccc1 [Example 164, 5-chloro-N-{(S,S)-1-[hydroxy(diphenyl)methyl]-2-methylbutyl}thiophene-2-sulfonamide]
- fold induction at 10 µg/mL [1]: 1.72

Compound: CCCCC(CCCC)[C@@H](CO)NS(=O)(=O)c1ccc(Cl)s1 [Example 205, N-[(1S)-2-Butyl-1-(hydroxymethyl)hexyl]-5-chloro-2-thiophenesulfonamide]
- fold induction at 20 µg/mL [2]: 2.6

Compound: O=[N+]([O-])c1ccc([C@@H](O)[C@@H](CO)NS(=O)(=O)c2ccc(Cl)s2)cc1 [Example 99, 5-chloro-N-[(R,R)-2-hydroxy-1-(hydroxymethyl)-2-(4-nitrophenyl)ethyl]thiophene-2-sulfonamide]
- fold induction at 20 µg/mL [2]: 1.5

Compound: CCCCCC[C@@H](CC)[C@@H](CO)NS(=O)(=O)c1ccc(Cl)s1 [Example 77A, 5-Chloro-N-[(1S,2R)-2-ethyl-1-(hydroxymethyl)octyl]thiophene-2-sulfonamide]
- fold induction at 20 µg/mL [2]: 3.1

Compound: CC(C)C[C@@H](C)[C@@H](CO)NS(=O)(=O)c1ccc(Cl)s1 [Example 27, 5-Chloro-N-[(1S,2R)-1-(hydroxymethyl)-2,4-dimethylpentyl]thiophene-2-sulfonamide]
- fold induction at 20 µg/mL [2]: 8.7

Compound: CC[C@@H](c1ccc(-c2ccccc2)cc1)[C@@H](CO)NS(=O)(=O)c1ccc(Br)s1 [Example 76, N-[(1S,2S)-2-[1,1′-biphenyl]-4-yl-1-(hydroxymethyl)butyl]-5-bromothiophene-2-sulfonamide]
- fold induction at 20 µg/mL [2]: 3.2

Compound: CC[C@H](C)[C@H](NS(=O)(=O)c1ccc(Cl)s1)C(O)c1ccc(OC)cc1 (stereo partly drawn) [Example 134, 5-chloro-N-{(S,S)-1-[hydroxy(4-methoxyphenyl)methyl]-2-methylbutyl}thiophene-2-sulfonamide]
- fold induction at 10 µg/mL [1]: 2.42

Compound: CC(C)C[C@@H](C(C)C)[C@@H](CO)NS(=O)(=O)c1ccc(Br)s1 [Example 75, 5-bromo-N-[(1S,2S)-1-(hydroxymethyl)-2-isopropyl-4-methylpentyl]thiophene-2-sulfonamide]
- fold induction at 20 µg/mL [2]: 4.7

Compound: CC[C@H](C)[C@H](NS(=O)(=O)c1cccs1)C(O)C(C)(C)C (stereo partly drawn) [Example 145, N-{(S)-2-hydroxy-3,3-dimethyl-1-[(S)-1-methylpropyl]butyl}thiophene-2-sulfonamide]
- fold induction at 10 µg/mL [1]: 1.72

Compound: O=S(=O)(NC(CO)C1CC=CCC1)c1ccc(Cl)s1 (stereo not shown) [Example 23, 5-chloro-N-(1-cyclohex-3-en-1-yl-2-hydroxyethyl)thiophene-2-sulfonamide]
- fold induction at 20 µg/mL: 6.4

Compound: CCCCC[C@H](c1ccccc1)[C@@H](CO)NS(=O)(=O)c1ccc(Cl)s1 [Example 45, 5-chloro-N-[(1S,2R)-1-(hydroxymethyl)-2-phenylheptyl]thiophene-2-sulfonamide]
- fold induction at 20 µg/mL [2]: 2.1

Compound: CC(NCc1ccccc1)[C@@H](CO)NS(=O)(=O)c1ccc(Cl)s1 (stereo partly drawn) [Example 84, N-[(1S)-2-(benzylamino)-1-(hydroxymethyl)propyl]-5-chloro-2-thiophenesulfonamide]
- fold induction at 20 µg/mL [2]: 3.8

Compound: O=S(=O)(NC(CO)C1CCCC1)c1ccc(Cl)s1 (stereo not shown) [Example 24, 5-chloro-N-(1-cyclopentyl-2-hydroxyethyl)thiophene-2-sulfonamide]
- fold induction at 20 µg/mL: 6

Compound: CC[C@@H](c1ccc(-c2ccccc2)cc1)[C@@H](CO)NS(=O)(=O)c1ccc(Cl)s1 [Example 54, N-[(1S,2S)-2-[1,1'-biphenyl]-4-yl-1-(hydroxymethyl)butyl]-5-chlorothiophene-2-sulfonamide]
- fold induction at 20 µg/mL [2]: 3.3
